This is an account of results in patent US6916802B2, “Amino ceramide-like compounds and therapeutic methods of use” (Genzyme Corporation, priority 2002, dated 2005).

Test [1] concerns Neutral sphingomyelinase (SMase). Put plainly: Neutral sphingomyelinase of MDCK cells. The format is biochemical, canine. The protocol:
Acid and neutral SMase assays were based on the procedures of Gatt et al. (Gatt, S. et al., “Assay of Enzymes of Lipid Metabolism With Colored and Fluorescent Derivatives of Natural Lipids,” Meth. Enzymol., 72:351-375 (1981)), using liposomes containing NBD-SM dispersed like the labeled ceramide (10 μM substrate and 30 μM lecithin). […] Incubation was at 37° C. for 30 min in the ultrasonic bath, then the fluorescent product, NBD-ceramide, was isolated by partitioning the assay mixture with 0.45 ml 2-propanol, 1.5 ml heptane, and 0.2 ml water. After centrifugation, a trace of contaminating NBD-SM was removed from 0.9 ml of the upper layer by washing with 0.35 ml water. The upper layer was analyzed with a fluorometer (460 nm excitation, 515 nm emission).

For test [2], the system named is acid ceramidase. The test is described as follows: Acid ceramidase of MDCK cell homogenate. The format is biochemical, canine. As to the method: (§1) Acid and neutral ceramidases were assayed under conditions like those above, but the medium contained 110 μM [1-^14C]decanoyl sphingosine (10^5 cpm) in 340 μM dioleoylphosphatidylcholine liposomes and 0.34 mg of MDCK cellular protein homogenate. […] After 60 min in the ultrasonic bath, 3 ml of C-M 2:1, carrier decanoic acid, and 0.6 ml of 0.9% saline were added and the lipids in the lower layer were separated by TLC with C-HOAc 9:1. The liberated decanoic acid was scraped off the glass plate and counted.

Test [3] has as its system MDCK cells. The test is described as follows: Lipid changes in MDCK cells (GlcCer, ceramide, diacylglycerol). The conditions noted are these: for Ceramide / Diglyceride: diglyceride kinase method; for level of GlcCer, estimated visually (TLC): 24 h incubation. In kind it is cell-based, canine. As to the method: TLC of the cell lipids was run with C-M-W 24:7:1 (solvent D) or 60:35:8 (solvent E).
Ceramide accumulation was similar for both stereoisomers (data not shown). An unexpected finding is that noticeable ceramide accumulation appeared only at inhibitor concentrations that were more than enough to bring GlcCer levels to a very low point (e.g., at 2 or 4 μM). The changes in ceramide concentration were quantitated in a separate experiment by the diglyceride kinase method, which allows one to also determine diacylglycerol (DAG) concentration (Preiss, J. E. et al., “Quantitative Measurement of SN-1,2-Diacylglycerols Present in Platelets, Hepatocytes, and Ras- and Sis-Transformed Normal Rat Kidney Cells,” J. Biol. Chem., 261:8597-8600 (1986)). The results (Table 5) are similar to the visually estimated ones: at 0.4 μM BML-129 or -130 there was little effect on ceramide content but at 4 μM inhibitor, a substantial increase was observed. (While the duplicate protein contents per incubation dish were somewhat erratic in the high-dose dishes, in which growth was slow, the changes were nevertheless large and clear.) Accumulation of ceramide had previously been observed with PDMP, at a somewhat higher level of inhibitor in the medium (Shayman, J. A. et al., “Modulation of Renal Epithelial Cell Growth by Glucosylceramide: Association with Protein Kinase C, Sphingosine, and Diacylglyceride,” J. Biol. Chem., 266:22968-22974 (1991)). From the data for cellular protein per incubation dish, it can be seen that there was no growth inhibition at the 0.4 μM level with either compound but substantial inhibition at the 4 μM level, especially with the glucosyltransferase inhibitor, BML-130. This finding is similar to the ones made in longer incubations with human cancer cells.

In test [4] the test system is HT-29 colon adenocarcinoma cells. Put plainly: Tumor cell growth in vitro (sulforhodamine B), HT-29. In kind it is cell-based, human. The note with it: rounded off to one digit, read-out: Inhibition of tumor cell growth in vitro, IC50. The protocol: (§2) Growth of cell lines. Comparisons of different inhibitors with regard to suppression of human cancer cell growth were made by the University of Michigan Cancer Center in vitro Drug Evaluation Core Laboratory. MCF-7 breast carcinoma cells, HT-29 colon adenocarcinoma cells, H-460 lung large cell carcinoma cells, and 9L brain gliosarcoma cells were grown in RPMI 1640 medium with 5% fetal bovine serum, 2 mM glutamine, 50 units/ml of penicillin, […] of streptomycin, and 0.1 mg/ml of neomycin. UMSCC-10A head and neck squamous carcinoma cells were grown in minimal essential medium with Earle salts and the same supplements. Medium components were from Sigma Chemical Co. Cells were plated in 96-well microtiter plates (1000 cells/well for H-460 and 9L cells, and 2000 cells/well for the other lines), and the test compounds were added 1 day later. The stock inhibitor solutions, 2 mM in 2 mM BSA, were diluted with different amounts of additional 2 mM BSA, then each solution was diluted 500-fold with growth medium to obtain the final concentrations indicated in the Figures and Tables.
(§3) Five days after plating the H-460 and 9L cells, or 6 days for the other lines, cell growth was evaluated by staining the adhering cells with sulforhodamine B and measuring the absorbance at 520 nm (Skehan, P. et al., “New Colorimetric Cytotoxicity Assay for Anticancer-Drug Screening,” J. Natl. Cancer Inst., 82:1107-1112 (1990)). The absorbance of the treated cultures is reported as percent of that of control cultures, to provide an estimate of the fraction of the cells that survived, or of inhibition of growth rate.

The subject of test [5] is MDCK cells. The test is described as follows: MDCK cell growth (cellular protein per dish). The format is cell-based, canine. The conditions noted are these: duplicate dishes. As to the method: For the experiments with labeled thymidine, each 8.5 cm dish contained 500,000 Madin-Darby canine kidney (MDCK) cells in 8 ml of Dulbecco modified essential supplemented medium. […] The control cells were also incubated in the presence of BSA. The cells were washed with phosphate/saline and trichloroacetic acid, then scraped off the dishes, dissolved in alkali, and analyzed for protein and DNA incorporated tritium. [Methyl-^3H]thymidine (10 μCi) was added 4 h prior to harvesting.

The subject of test [6] is MCF-7 breast carcinoma cells. Put plainly: Tumor cell growth in vitro (sulforhodamine B), MCF-7. In kind it is cell-based, human. The conditions noted are these: rounded off to one digit, read-out: Inhibition of tumor cell growth in vitro, IC50. The protocol:
as §2, §3

The subject of test [7] is neutral ceramidase. The test is described as follows: Neutral ceramidase of MDCK cell homogenate. The format is biochemical, canine. As to the method:
as §1

In test [8] the test system is MDCK cells. The test is described as follows: Lipid changes in MDCK cells (GlcCer, ceramide, diacylglycerol). The note with it: 24 h. The format is cell-based, canine.
Test [9] relates to 9L brain gliosarcoma cells. Put plainly: Tumor cell growth in vitro (sulforhodamine B), 9L. The conditions noted are these: for pIC50: 9L, rounded off to one digit, read-out: Inhibition of tumor cell growth in vitro, IC50; for growth, % of control growth: 9L cells. In kind it is cell-based. In short, it runs like this:
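Cells in RPMI 1640 + 5% FBS, plated 1000/well (H-460, 9L) or 2000/well (MCF-7); compounds added day 1 from 2 mM BSA stocks diluted 500-fold in medium. Growth read by sulforhodamine B staining, A520, at day 5 (H-460, 9L) or day 6 (MCF-7), as percent of control.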

The subject of test [10] is Ceramide synthase. The test is described as follows: Ceramide synthase of MDCK homogenate. In kind it is biochemical, canine. The protocol: Ceramide synthase was assayed with 1 μM [3-^3H]sphingosine (70,000 cpm, repurified by column chromatography), 0.2 mM stearoyl-CoA, 0.5 mM dithiothreitol, and ˜300 μg of MDCK homogenate protein in 25 mM phosphate-K^+ buffer, pH 7.4, in a total volume of 0.2 ml. The incubation (for 30 min) and TLC were carried out as above and the ceramide band was counted.

pIC50: −log10 of the molar value. Values joined by “and” are separate entries in the source; they are usually repeats but may differ in a detail not shown here. Equal entries are not always repeated. Marks after values point to notes of the source that are not given here.

On to `CCCCCCCCCCCCCCCC(=O)NC(CN1CCCC1)C(O)c1ccccc1` (racemic) [BML-129], for which the “Sphingomyelinase pH 7.1, enzyme activity (% of control)” value in [1] (5 μM) is 105 ± 11 % of control; in [1] (50 μM) it was 142 ± 11^b % of control. For the same compound, the “Ceramidase pH 4.5, enzyme activity (% of control)” value in test [2] (5 μM) is given as 108 ± 8 % of control; in [2] (50 μM) it was 171 ± 26^a % of control. In addition, the Ceramide in test [3] (0.4 μM) is 0.99 nmol/mg protein and 1.29 nmol/mg protein; in test [3] (4 μM), 3.57 nmol/mg protein and 3.78 nmol/mg protein. Moreover, the Diglyceride is 5.13 nmol/mg protein and 5.51 nmol/mg protein in test [3] (0.4 μM); 9.30 nmol/mg protein and 9.68 nmol/mg protein in test [3] (4 μM). For the same compound, the “level of GlcCer, estimated visually (TLC)” value in test [3] (0.5 μM) is reported as “greatly lowered”. Further, the negative-log IC50 (pIC50) was 5.70 in [4], 5.52 in test [6] and 5.70 in test [9]. Moreover, the Protein in [5] (0.4 μM in growth medium) is 538 μg/dish and 500 μg/dish; in [5] (4 μM in growth medium) it was 396 μg/dish and 311 μg/dish. Also, the “Ceramidase pH 7.4, enzyme activity (% of control)” value was 100 ± 0 % of control in test [7] (5 μM) and 99 ± 2 % of control in test [7] (50 μM). In addition, the “ceramide concentration, TLC densitometry, compared with BML-130” value in [8] (various concentrations) was “virtually identical”. Moreover, the “Ceramide Synthase, enzyme activity (% of control)” value is reported as 97 ± 0 % of control in [10] (5 μM) and 102 ± 1 % of control in test [10] (50 μM).

As to `CCCCCCCCCCCCCCCC(=O)NC(CN1CCCC1)C(O)c1ccccc1` (racemic) [BML-130], the “Sphingomyelinase pH 7.1, enzyme activity (% of control)” value is recorded as 110 ± 7 % of control in test [1] (5 μM) and 152 ± 14 % of control in [1] (50 μM). The “Ceramidase pH 4.5, enzyme activity (% of control)” value in [2] (5 μM) is recorded as 107 ± 11 % of control; in test [2] (50 μM) it was 160 ± 21^a % of control. For the same compound, in [3] (0.3 μM), the “level of GlcCer, estimated visually (TLC)” value is “greatly lowered”. Also, the Ceramide in [3] (0.4 μM) was 0.94 nmol/mg protein and 0.87 nmol/mg protein; in test [3] (4 μM), 5.41 nmol/mg protein and 3.34 nmol/mg protein. The Diglyceride was 4.73 nmol/mg protein and 5.65 nmol/mg protein in [3] (0.4 μM); 11.9 nmol/mg protein and 8.71 nmol/mg protein in [3] (4 μM). Besides, the pIC50 in [4], in test [6] and in [9] was 5.70 each time. Also, the Protein in test [5] (0.4 μM in growth medium) was 544 μg/dish and 538 μg/dish; in test [5] (4 μM in growth medium) it was 160 μg/dish and 268 μg/dish. Further, the “Ceramidase pH 7.4, enzyme activity (% of control)” value in [7] (5 μM) and in test [7] (50 μM) was 100 ± 15 % of control each time. The “ceramide concentration, TLC densitometry” value came to 1.0 nmol/mg protein in [8] (0.5 μM), 1.1 nmol/mg protein in test [8] (1 μM), 1.5 nmol/mg protein in [8] (2 μM) and 3.3 nmol/mg protein in test [8] (4 μM). In addition, the figures for the “growth, % of control growth” value in [9] (2 μM inhibitor) and in test [9] (3 μM inhibitor) were 93% and 5%, respectively. Also, the “Ceramide Synthase, enzyme activity (% of control)” value in [10] (5 μM) is 108 ± 10 % of control; in test [10] (50 μM), 106 ± 29 % of control.
